Assay: refractive index (other wavelength) (dimensionless); xn = mol fraction of the nth substance listed
Settings: Liquid, ellipsometry

[Cl][Ce]([Cl])[Cl] [cerium trichloride] + [Cl-].[Cs+]
refractive index, 100 kPa, Wavelength=632.8 nm
Settings | x1 = 0.25 | x1 = 0.5 | x1 = 0.75 | x1 = 1
1073 K | 1.495 | 1.553 | 1.627 | –
1103 K | 1.49 | 1.549 | 1.623 | 1.697
1123 K | 1.487 | 1.545 | 1.619 | –
1133 K | – | – | – | 1.691
1153 K | 1.482 | 1.54 | 1.614 | 1.688
1173 K | 1.479 | 1.537 | 1.61 | 1.685
1193 K | – | – | – | 1.681
1203 K | – | 1.532 | – | –
1213 K | – | 1.53 | – | 1.678
1223 K | – | – | 1.601 | –
1233 K | – | – | – | 1.674

[Cl][Ce]([Cl])[Cl] [cerium trichloride] + [Cl-].[Na+]
refractive index, 101 kPa, Wavelength=632.8 nm
Settings | 1073 K | 1103 K | 1123 K | 1133 K | 1153 K | 1173 K | 1193 K | 1213 K | 1223 K | 1233 K
x1 = 0.25 | 1.515 | 1.51 | 1.507 | – | 1.502 | 1.5 | – | – | – | –
x1 = 0.5 | 1.595 | 1.59 | 1.587 | – | 1.582 | 1.58 | 1.578 | – | – | –
x1 = 0.75 | 1.656 | 1.651 | 1.647 | – | 1.642 | 1.639 | 1.636 | – | 1.631 | –
x1 = 1 | – | 1.697 | – | 1.691 | 1.688 | 1.685 | 1.681 | 1.678 | – | 1.674

[Cl-].[Cs+] [cesium chloride] + [Cl-].[Cl-].[Cl-].[Gd+3]
100 kPa, Wavelength=632.8 nm, x2 = 0
Settings | refractive index
1023 K | 1.439
1033 K | 1.438
1053 K | 1.434
1073 K | 1.43
1093 K | 1.426
1113 K | 1.423
1133 K | 1.419
1153 K | 1.415
1173 K | 1.411

[Cl-].[Na+] [sodium chloride] + [Cl][Sm]([Cl])[Cl]
100 kPa, Wavelength=632.8 nm, x2 = 0
Settings | refractive index
1083 K | 1.41
1093 K | 1.408
1103 K | 1.407
1113 K | 1.406
1123 K | 1.405
1133 K | 1.404
1153 K | 1.402
1173 K | 1.399

[Cl-].[Cl-].[Cl-].[Gd+3] [gadolinium(III) chloride] + [Cl-].[Na+]
refractive index, 100 kPa, Wavelength=632.8 nm
Settings | 923 K | 973 K | 1023 K | 1073 K | 1123 K | 1173 K
x1 = 0.25 | 1.525 | 1.518 | 1.512 | 1.505 | 1.496 | 1.488
x1 = 0.5 | 1.586 | 1.58 | 1.57 | 1.562 | 1.55 | 1.544
x1 = 0.75 | 1.643 | 1.64 | 1.638 | 1.627 | 1.62 | 1.616
x1 = 1 | 1.7 | 1.685 | 1.68 | 1.675 | 1.664 | 1.662

[Cl-].[K+] [potassium chloride] + [Cl][Ce]([Cl])[Cl]
100 kPa, Wavelength=632.8 nm, x2 = 0
Settings | refractive index
1073 K | 1.393
1093 K | 1.39
1103 K | 1.388
1113 K | 1.386
1123 K | 1.385
1133 K | 1.383
1153 K | 1.38
1173 K | 1.377
1193 K | 1.374

[Cl-].[K+] [potassium chloride] + [Cl-].[Na+]
101 kPa, Wavelength=632.8 nm, x2 = 0.5
Settings | refractive index
953 K | 1.42
973 K | 1.417
993 K | 1.414
1013 K | 1.411
1033 K | 1.408
1053 K | 1.405
1073 K | 1.402
1093 K | 1.399
1103 K | 1.397
1113 K | 1.396
1123 K | 1.394
1133 K | 1.393
1153 K | 1.39
1173 K | 1.387

[Cl][Sm]([Cl])[Cl] [samarium chloride] + [Cl-].[Na+]
refractive index, 100 kPa, Wavelength=632.8 nm
Settings | 973 K | 1003 K | 1023 K | 1073 K | 1103 K | 1123 K | 1153 K | 1173 K | 1193 K
x1 = 0.25 | 1.536 | 1.53 | 1.526 | 1.518 | 1.513 | 1.51 | – | 1.503 | 1.499
x1 = 0.5 | 1.613 | 1.609 | 1.602 | 1.583 | 1.582 | 1.58 | – | 1.569 | –
x1 = 0.75 | 1.672 | 1.665 | 1.662 | 1.653 | 1.648 | 1.64 | – | 1.629 | –
x1 = 1 | 1.712 | 1.705 | 1.701 | 1.691 | 1.684 | 1.68 | 1.674 | 1.672 | –

[Cl-].[Cl-].[Cl-].[Gd+3] [gadolinium(III) chloride] + [Cl-].[K+]
refractive index, 100 kPa, Wavelength=632.8 nm
Settings | 923 K | 973 K | 1023 K | 1073 K | 1123 K | 1173 K
x1 = 0.25 | – | – | 1.48 | 1.473 | 1.465 | 1.457
x1 = 0.5 | 1.557 | 1.551 | 1.546 | 1.54 | 1.534 | 1.529
x1 = 0.75 | 1.665 | 1.65 | 1.635 | 1.62 | 1.606 | 1.591
x1 = 1 | 1.7 | 1.685 | 1.68 | 1.675 | 1.664 | 1.662

[Cl][Ce]([Cl])[Cl] [cerium trichloride] + [Cl-].[K+]
refractive index, 100 kPa, Wavelength=632.8 nm
Settings | 1073 K | 1103 K | 1123 K | 1133 K | 1153 K | 1173 K | 1193 K | 1203 K | 1213 K | 1233 K
x1 = 0.25 | 1.478 | 1.475 | 1.471 | – | 1.466 | 1.463 | 1.46 | – | – | –
x1 = 0.5 | 1.56 | 1.554 | 1.552 | – | 1.548 | 1.544 | – | 1.54 | – | –
x1 = 0.75 | 1.591 | 1.586 | 1.583 | – | 1.582 | 1.575 | – | – | – | –
x1 = 1 | – | 1.697 | – | 1.691 | 1.688 | 1.685 | 1.681 | – | 1.678 | 1.674

[Cl][Sm]([Cl])[Cl] [samarium chloride] + [Cl-].[K+]
refractive index, 100 kPa, Wavelength=632.8 nm
Settings | 973 K | 1003 K | 1023 K | 1073 K | 1103 K | 1123 K | 1153 K | 1173 K | 1203 K
x1 = 0.25 | – | – | – | 1.478 | 1.47 | 1.466 | – | 1.458 | 1.45
x1 = 0.5 | 1.588 | 1.582 | 1.577 | 1.56 | 1.551 | 1.54 | – | 1.525 | 1.52
x1 = 0.75 | 1.66 | 1.652 | 1.651 | 1.63 | 1.623 | 1.618 | – | 1.605 | 1.601
x1 = 1 | 1.712 | 1.705 | 1.701 | 1.691 | 1.684 | 1.68 | 1.674 | 1.672 | –

[Cl-].[K+] [potassium chloride] + [Cl-].[Cl-].[Cl-].[Gd+3]
100 kPa, Wavelength=632.8 nm, x2 = 0
Settings | refractive index
1073 K | 1.393
1093 K | 1.39
1103 K | 1.388
1113 K | 1.386
1123 K | 1.385
1133 K | 1.383
1153 K | 1.38
1173 K | 1.377
1193 K | 1.374

[Cl-].[Na+] [sodium chloride] + [Cl][Ce]([Cl])[Cl]
101 kPa, Wavelength=632.8 nm, x2 = 0
Settings | refractive index
1083 K | 1.41
1093 K | 1.408
1103 K | 1.407
1113 K | 1.406
1123 K | 1.405
1133 K | 1.404
1153 K | 1.402
1173 K | 1.399

[Cl-].[Cl-].[Cl-].[Gd+3] [gadolinium(III) chloride] + [Cl-].[Cs+]
refractive index, 100 kPa, Wavelength=632.8 nm
Settings | 923 K | 973 K | 1023 K | 1073 K | 1103 K | 1123 K | 1173 K
x1 = 0.15 | – | – | – | 1.46 | 1.453 | 1.448 | 1.437
x1 = 0.5 | 1.568 | 1.56 | 1.552 | 1.543 | 1.538 | 1.535 | 1.526
x1 = 0.75 | 1.629 | 1.621 | 1.613 | 1.606 | 1.603 | 1.601 | 1.594
x1 = 1 | 1.7 | 1.685 | 1.68 | 1.675 | – | 1.664 | 1.662

[Cl-].[K+] [potassium chloride] + [Cl][Sm]([Cl])[Cl]
100 kPa, Wavelength=632.8 nm, x2 = 0
Settings | refractive index
1073 K | 1.393
1093 K | 1.39
1103 K | 1.388
1113 K | 1.386
1123 K | 1.385
1133 K | 1.383
1153 K | 1.38
1173 K | 1.377
1193 K | 1.374

[Cl-].[Cs+] [cesium chloride] + [Cl][Sm]([Cl])[Cl]
100 kPa, Wavelength=6328 nm, x2 = 0
Settings | refractive index
1023 K | 1.439
1033 K | 1.438
1053 K | 1.434
1073 K | 1.43
1093 K | 1.426
1113 K | 1.423
1133 K | 1.419
1153 K | 1.415
1173 K | 1.411

[Cl-].[Cs+] [cesium chloride] + [Cl][Ce]([Cl])[Cl]
100 kPa, Wavelength=632.8 nm, x2 = 0
Settings | refractive index
1023 K | 1.439
1033 K | 1.438
1053 K | 1.434
1073 K | 1.43
1093 K | 1.426
1113 K | 1.423
1133 K | 1.419
1153 K | 1.415
1173 K | 1.411

[Cl][Sm]([Cl])[Cl] [samarium chloride] + [Cl-].[Cs+]
refractive index, 100 kPa, Wavelength=6328 nm
Settings | 973 K | 1003 K | 1023 K | 1073 K | 1103 K | 1123 K | 1153 K | 1173 K | 1203 K
x1 = 0.15 | – | – | 1.468 | 1.464 | 1.458 | 1.448 | – | 1.44 | –
x1 = 0.5 | 1.564 | 1.558 | 1.557 | 1.55 | 1.543 | 1.54 | – | 1.527 | 1.523
x1 = 0.75 | 1.675 | 1.668 | 1.662 | 1.654 | 1.651 | 1.642 | – | 1.64 | 1.635
x1 = 1 | 1.712 | 1.705 | 1.701 | 1.691 | 1.684 | 1.68 | 1.674 | 1.672 | –

[Cl-].[Na+] [sodium chloride] + [Cl-].[Cl-].[Cl-].[Gd+3]
100 kPa, Wavelength=632.8 nm, x2 = 0
Settings | refractive index
1083 K | 1.41
1093 K | 1.408
1103 K | 1.407
1113 K | 1.406
1123 K | 1.405
1133 K | 1.404
1153 K | 1.402
1173 K | 1.399

Reference: the NIST ThermoML archive (doi:10.1021/acs.jced.6b00362)
